ChEMBL document CHEMBL3885861, “Open TG-GATES”

Organism: Rattus norvegicus
Test: Open TG-GATES - Regimen: Daily Repeat
Format: toxicity, organism-based, Sprague-Dawley
Set-up: regimen Daily Repeat, gender Male, age 6 weeks
Conditions: in vivo, po, 300 mg/kg, route gavage, dose level Middle; for APTT / Bas / Eos / Fbg / Hb / Ht / Lym / MCH / MCHC / MCV / Mono / Neu / PT / Plat / RBC / Ret / WBC: tissue Blood; for KIDNEY_L / KIDNEY_R / KIDNEY_TOTAL: tissue Kidney; for LIVER: tissue Liver; for A/G / ALP / ALT / AST / BUN / CRE / Ca / Cl / DBIL / GLC / IP / K / LDH / Na / PL / RALB / TBIL / TC / TG / TP / gamma-GTP: tissue Plasma

For `C[C@H]1O[C@H](O[C@H]2[C@H](O)[C@@H](O)[C@@H](O[C@H]3[C@H](O)[C@@H](O)C(O)O[C@@H]3CO)O[C@@H]2CO)[C@H](O)[C@@H](O)[C@@H]1N[C@H]1C=C(CO)[C@@H](O)[C@H](O)[C@H]1O` (some centres not stated) [ACARBOSE], the TERMINAL_BW (72 h, time 3 day) was 230.6 g, the APTT (72 h, time 3 day) was 16.3 s and the Bas (72 h, time 3 day) was 0.2%. It also gave an Eos (72 h, time 3 day) of 1%, a Fbg (72 h, time 3 day) of 299.4 mg/dL and a Hb (72 h, time 3 day) of 13.6 g/dL. For the same compound, the Ht (72 h, time 3 day) was 41%, the Lym (72 h, time 3 day) was 76.6% and the MCH (72 h, time 3 day) was 21 pg. For the same compound, the MCHC (72 h, time 3 day) was 33.3%, the MCV (72 h, time 3 day) was 63 fL and the Mono (72 h, time 3 day) was 3%. The Neu (72 h, time 3 day) was 18.4%, the PT (72 h, time 3 day) was 13 s and the Plat (72 h, time 3 day) was 120.6 x10_4/uL. It also gave an RBC (72 h, time 3 day) of 650.8 x10_4/ul, a Ret (72 h, time 3 day) of 7.2% and a WBC (72 h, time 3 day) of 104.1 x10_2/uL. It also gave a KIDNEY_L (72 h, time 3 day) of 1.1 g, a KIDNEY_R (72 h, time 3 day) of 1.1 g and a KIDNEY_TOTAL (72 h, time 3 day) of 2.1 g. For the same compound, the LIVER (72 h, time 3 day) was 11.2 g, the A/G (72 h, time 3 day) was 0.9 and the ALP (72 h, time 3 day) was 1565.8 IU/L. For the same compound, the ALT (72 h, time 3 day) was 39.4 IU/L, the AST (72 h, time 3 day) was 67.2 IU/L and the BUN (72 h, time 3 day) was 12.6 mg/dL. It also gave a CRE (72 h, time 3 day) of 0.2 mg/dL, a Ca (72 h, time 3 day) of 10.7 mg/dL and a Cl (72 h, time 3 day) of 103 meq/L. For the same compound, the DBIL (72 h, time 3 day) was 0.01 mg/dL, the GLC (72 h, time 3 day) was 170.8 mg/dL and the IP (72 h, time 3 day) was 8.2 mg/dL. For the same compound, the K (72 h, time 3 day) was 3.9 meq/L, the LDH (72 h, time 3 day) was 89.6 IU/L and the Na (72 h, time 3 day) was 140.4 meq/L. It also gave a PL (72 h, time 3 day) of 148.4 mg/dL, an RALB (72 h, time 3 day) of 2.6 g/dL and a TBIL (72 h, time 3 day) of 0.06 mg/dL. The TC (72 h, time 3 day) was 81 mg/dL, the TG (72 h, time 3 day) was 98 mg/dL and the TP (72 h, time 3 day) was 5.5 g/dL. For the same compound, the gamma-GTP (72 h, time 3 day) was 1.2 IU/L, the TERMINAL_BW ([…], time 7 day) was 272.1 g and the TERMINAL_BW ([…], time 14 day) was 332.7 g. It also gave a TERMINAL_BW ([…], time 28 day) of 401.7 g, an APTT ([…], time 7 day) of 17.2 s and a Bas ([…], time 7 day) of 0%. For the same compound, the Eos ([…], time 7 day) was 1%, the Fbg ([…], time 7 day) was 323 mg/dL and the Hb ([…], time 7 day) was 14.1 g/dL. The Ht ([…], time 7 day) was 41.7%, the Lym ([…], time 7 day) was 74.6% and the MCH ([…], time 7 day) was 21.1 pg. The MCHC ([…], time 7 day) was 33.8%, the MCV ([…], time 7 day) was 62.4 fL and the Mono ([…], time 7 day) was 2.6%. It also gave a Neu ([…], time 7 day) of 21%, a PT ([…], time 7 day) of 13.1 s and a Plat ([…], time 7 day) of 128.3 x10_4/uL. It also gave an RBC ([…], time 7 day) of 669.4 x10_4/ul, a Ret ([…], time 7 day) of 6.1% and a WBC ([…], time 7 day) of 95.8 x10_2/uL. It also gave an APTT ([…], time 14 day) of 23.4 s, a Bas ([…], time 14 day) of 0% and an Eos ([…], time 14 day) of 0.8%. For the same compound, the Fbg ([…], time 14 day) was 272.2 mg/dL, the Hb ([…], time 14 day) was 14.8 g/dL and the Ht ([…], time 14 day) was 44%. The Lym ([…], time 14 day) was 78.8%, the MCH ([…], time 14 day) was 21 pg and the MCHC ([…], time 14 day) was 33.7%. For the same compound, the MCV ([…], time 14 day) was 62.2 fL, the Mono ([…], time 14 day) was 2% and the Neu ([…], time 14 day) was 17.8%. The PT ([…], time 14 day) was 13.2 s, the Plat ([…], time 14 day) was 126.6 x10_4/uL and the RBC ([…], time 14 day) was 706.8 x10_4/ul. The Ret ([…], time 14 day) was 5%, the WBC ([…], time 14 day) was 105.8 x10_2/uL and the APTT ([…], time 28 day) was 20.2 s. It also gave a Bas ([…], time 28 day) of 0%, an Eos ([…], time 28 day) of 1% and a Fbg ([…], time 28 day) of 282.8 mg/dL. The Hb ([…], time 28 day) was 15.3 g/dL, the Ht ([…], time 28 day) was 44.4% and the Lym ([…], time 28 day) was 79.6%. The MCH ([…], time 28 day) was 20.2 pg, the MCHC ([…], time 28 day) was 34.4% and the MCV ([…], time 28 day) was 58.6 fL. The Mono ([…], time 28 day) was 2%, the Neu ([…], time 28 day) was 16% and the PT ([…], time 28 day) was 13.7 s. The Plat ([…], time 28 day) was 95.8 x10_4/uL, the RBC ([…], time 28 day) was 757.4 x10_4/ul and the Ret ([…], time 28 day) was 2.2%. The WBC ([…], time 28 day) was 88.5 x10_2/uL, the KIDNEY_L ([…], time 7 day) was 1.1 g and the KIDNEY_R ([…], time 7 day) was 1.1 g. It also gave a KIDNEY_TOTAL ([…], time 7 day) of 2.3 g, a KIDNEY_L ([…], time 14 day) of 1.2 g and a KIDNEY_R ([…], time 14 day) of 1.3 g. For the same compound, the KIDNEY_TOTAL ([…], time 14 day) was 2.5 g, the KIDNEY_L ([…], time 28 day) was 1.4 g and the KIDNEY_R ([…], time 28 day) was 1.3 g. For the same compound, the KIDNEY_TOTAL ([…], time 28 day) was 2.7 g, the LIVER ([…], time 7 day) was 12.7 g and the LIVER ([…], time 14 day) was 15.1 g. It also gave an LIVER ([…], time 28 day) of 16.3 g, an A/G ([…], time 7 day) of 0.9 and an ALP ([…], time 7 day) of 1607 IU/L. It also gave an ALT ([…], time 7 day) of 50 IU/L, an AST ([…], time 7 day) of 77.2 IU/L and a BUN ([…], time 7 day) of 16.4 mg/dL. For the same compound, the CRE ([…], time 7 day) was 0.2 mg/dL, the Ca ([…], time 7 day) was 10.9 mg/dL and the Cl ([…], time 7 day) was 104.2 meq/L. It also gave a DBIL ([…], time 7 day) of 0.012 mg/dL, a GLC ([…], time 7 day) of 183.6 mg/dL and an IP ([…], time 7 day) of 7.5 mg/dL. It also gave a K ([…], time 7 day) of 4.2 meq/L, an LDH ([…], time 7 day) of 80.6 IU/L and a Na ([…], time 7 day) of 142 meq/L. For the same compound, the PL ([…], time 7 day) was 147.6 mg/dL, the RALB ([…], time 7 day) was 2.6 g/dL and the TBIL ([…], time 7 day) was 0.054 mg/dL. The TC ([…], time 7 day) was 75 mg/dL, the TG ([…], time 7 day) was 91.6 mg/dL and the TP ([…], time 7 day) was 5.7 g/dL. The gamma-GTP ([…], time 7 day) was 1 IU/L, the A/G ([…], time 14 day) was 0.8 and the ALP ([…], time 14 day) was 1744.6 IU/L. For the same compound, the ALT ([…], time 14 day) was 39 IU/L, the AST ([…], time 14 day) was 69.8 IU/L and the BUN ([…], time 14 day) was 16.2 mg/dL. It also gave a CRE ([…], time 14 day) of 0.2 mg/dL, a Ca ([…], time 14 day) of 10.6 mg/dL and a Cl ([…], time 14 day) of 105 meq/L. It also gave a DBIL ([…], time 14 day) of 0.01 mg/dL, a GLC ([…], time 14 day) of 186 mg/dL and an IP ([…], time 14 day) of 6.8 mg/dL. The K ([…], time 14 day) was 4.1 meq/L, the LDH ([…], time 14 day) was 95.2 IU/L and the Na ([…], time 14 day) was 142 meq/L. It also gave a PL ([…], time 14 day) of 141.6 mg/dL, an RALB ([…], time 14 day) of 2.7 g/dL and a TBIL ([…], time 14 day) of 0.05 mg/dL. For the same compound, the TC ([…], time 14 day) was 67.4 mg/dL, the TG ([…], time 14 day) was 135.4 mg/dL and the TP ([…], time 14 day) was 5.9 g/dL. The gamma-GTP ([…], time 14 day) was 1 IU/L, the A/G ([…], time 28 day) was 0.8 and the ALP ([…], time 28 day) was 1170.4 IU/L. The ALT ([…], time 28 day) was 46.4 IU/L, the AST ([…], time 28 day) was 70.8 IU/L and the BUN ([…], time 28 day) was 15.6 mg/dL. For the same compound, the CRE ([…], time 28 day) was 0.2 mg/dL, the Ca ([…], time 28 day) was 10.8 mg/dL and the Cl ([…], time 28 day) was 105 meq/L. The DBIL ([…], time 28 day) was 0.012 mg/dL, the GLC ([…], time 28 day) was 190.8 mg/dL and the IP ([…], time 28 day) was 5.9 mg/dL. It also gave a K ([…], time 28 day) of 4.1 meq/L, an LDH ([…], time 28 day) of 82.6 IU/L and a Na ([…], time 28 day) of 142.2 meq/L. For the same compound, the PL ([…], time 28 day) was 141.6 mg/dL, the RALB ([…], time 28 day) was 2.7 g/dL and the TBIL ([…], time 28 day) was 0.048 mg/dL. The TC ([…], time 28 day) was 65.4 mg/dL, the TG ([…], time 28 day) was 154.8 mg/dL and the TP ([…], time 28 day) was 6 g/dL. For the same compound, the gamma-GTP ([…], time 28 day) was 1 IU/L.
